One test concerns the target SHP2^E76A protein (Homo sapiens (Human), UniProt Q06124, E76A). Nature of the test: SHP2 enzyme activity inhibition experiment. Format: biochemical. In outline:
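Compounds tested at 10 concentrations in 3-fold serial dilution. IC50 from a four-parameter Hill-slope nonlinear fit of enzyme activity versus concentration.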

In test [1] the test system is phosphorylation level of intracellular protein kinase (ERK) in MOLM13 cells. Nature of the test: Phosphorylated protein kinase (p-ERK) cell experiment (AlphaLISA). Format: cell-based. To be noted: Homo sapiens, MOLM-13, MOLM13 cells. (In general: In Alpha technology, singlet oxygen from a donor bead excites a nearby acceptor bead.)
The next test has as its system MOLM-13 cells. Nature of the test: MOLM-13 cell proliferation experiment. The format is cell-based. The procedure: After 3 days, 5 µL of CellTiter-Glo reagent (Promega, ZG7572) was added to each well, and the plates were kept at room temperature in the dark for 10 minutes. The […] was detected by Spectra max i3 (Molecular Devices). The relative growth rate of the treated cells was compared with that of DMSO control.

[2] abbreviates: SHP2 enzyme activity, Tables 1.1 and 1.2, read-out: IC50.
[3] abbreviates: Table 4, read-out: SHP2 enzyme activity IC50.
Where [4] appears, read: p-ERK, 2 hours of cell treatment, Tables 2.1 and 2.2, read-out: IC50.
Setting [5] is: Homo sapiens, MOLM-13, 72 h, MOLM-13 cell proliferation, 3 days, Tables 3.1 and 3.2, read-out: IC50.
[6] abbreviates: Homo sapiens, MOLM-13, read-out: MOLM-13 cell proliferation IC50.

Read-outs that look alike come from different tables or passages of the source.

Chain of SHP2^E76A protein (Q06124 whole entry E76A): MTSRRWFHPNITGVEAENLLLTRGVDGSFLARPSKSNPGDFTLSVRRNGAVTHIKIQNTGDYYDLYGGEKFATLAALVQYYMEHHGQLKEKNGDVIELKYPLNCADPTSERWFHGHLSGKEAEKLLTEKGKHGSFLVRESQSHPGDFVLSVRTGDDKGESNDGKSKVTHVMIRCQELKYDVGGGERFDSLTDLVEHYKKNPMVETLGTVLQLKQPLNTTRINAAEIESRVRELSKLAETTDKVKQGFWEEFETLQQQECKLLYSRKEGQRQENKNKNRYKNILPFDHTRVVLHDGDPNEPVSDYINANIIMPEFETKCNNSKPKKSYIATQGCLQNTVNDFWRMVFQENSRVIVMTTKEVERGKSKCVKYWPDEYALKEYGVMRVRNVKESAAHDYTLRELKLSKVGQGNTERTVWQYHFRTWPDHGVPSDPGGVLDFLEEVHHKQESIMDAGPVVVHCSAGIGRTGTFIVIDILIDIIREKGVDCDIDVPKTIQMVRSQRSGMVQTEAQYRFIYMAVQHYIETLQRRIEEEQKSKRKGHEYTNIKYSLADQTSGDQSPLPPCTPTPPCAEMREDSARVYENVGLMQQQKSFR

As to `Nc1cc(Sc2cnc(N3CCC4(CC3)COC[C@H]4N)n3ccnc23)c(Cl)c(Cl)n1` [(S)-8-(8-((6-amino-2,3-dichloropyridin-4-yl)thio)imidazo[1,2-c]pyrimidin-5-yl)-2-oxa-8-azaspiro[4.5]decan-4-amine], the IC50 at SHP2^E76A protein (setting [2]) is below 100 nM; on SHP2^E76A protein (setting [3]), 9 nM; in test [1] (Table 4, read-out: p-ERK IC50), 28 nM; in test [1] (setting [4]), below 100 nM; with MOLM-13 cells (setting [5]), below 100 nM; in the test with MOLM-13 cells (setting [6]) it was 54 nM.
On to `Cc1nc(N)cc(Sc2cnc(N3CCC4(CC3)COC[C@H]4N)n3ccnc23)c1Cl` [(S)-8-(8-((6-amino-3-chloro-2-methyl-pyridin-4-yl)thio)imidazo[1,2-c]pyrimidin-5-yl)-2-oxa-8-azaspiro[4.5]decan-4-amine], for which the IC50 was below 100 nM on SHP2^E76A protein (setting [2]); 34 nM on SHP2^E76A protein (setting [3]); 160 nM in test [1] (Table 4, read-out: p-ERK IC50); 100 to 1000 nM in test [1] (setting [4]); 100 to 1000 nM with MOLM-13 cells (setting [5]); 340 nM in the test on MOLM-13 cells (setting [6]). Also, the IC50 in the test on MOLM-13 cells (MOLM-13 cell proliferation, 3 days, Tables 3.1 and 3.2, read-out: IC50) was below 100 nM.

(Values after patent publication US11498930B2 (BLUERAY THERAPEUTICS (SHANGHAI) CO., LTD., priority 2018, dated 2022).)
